Molecules are shown by their SMILES. Structures can show the parent of a compound that is named as a salt.

For orientation: melting point means the temperature, or range, at which the solid turns liquid. As a reminder, the EC50 is the concentration needed to bring the measured effect to its halfway point.

Tested on in the first data set: not given
Assay: not given
With `CNC(=O)c1cccc(C2C(C(=O)c3ccc(OC)cc3)=C(O)C(=O)N2c2nnc(C)s2)c1` (centres unmarked) (as salt: hydrochloride), the melting point amounted to 238 °C.
In turn, `COC(=O)c1cccc(C2C(C(=O)c3ccc(OC)cc3)=C(O)C(=O)N2c2nnc(C)s2)c1` (centres unmarked) had a melting point of 218 °C.
Same read-out and setting: the result for `CC(C)c1ccc(C(=O)C2=C(O)C(=O)N(c3ncc(Sc4ccc([N+](=O)[O-])cc4)s3)C2c2ccc(OC(F)(F)F)cc2)cc1` (centres unmarked) [Example 131, 3-hydroxy-4-(4-isopropyl-benzoyl)-1-[5-(4-nitro-phenylsulfanyl)-thiazol-2-yl]-5-(4-trifluoromethoxy-phenyl)-1,5-dihydro-pyrrol-2-one] reads 238 °C; that for `CON=C(C1=C(O)C(=O)N(c2ncc(S(=O)(=O)c3ccc([N+](=O)[O-])cc3)s2)C1c1ccc(C(C)C)cc1)c1ccc(C)cc1` (mixture of isomers) [Example 49, 3-hydroxy-5-(4-isopropyl-phenyl)-4-{[methoxyimino]-p-tolyl-methyl}-1-[5-(4-nitro-benzenesulfonyl)-thiazol-2-yl]-1,5-dihydro-pyrrol-2-one], 156 °C.
On the same count and under the same terms, the result for `COc1ccc(C(=O)C2=C(O)C(=O)N(c3nnc(C)s3)C2c2cccc(C(=O)O)c2)cc1` (centres unmarked) reads 281 °C; that for `Cc1ccc(C(=O)C2=C(O)C(=O)N(c3ncc(S(=O)(=O)c4ccc([N+](=O)[O-])cc4)s3)C2c2ccc(C(=O)N(C)C)cc2)cc1` (centres unmarked) (as salt: hydrochloride), 205 °C; that for `COc1ccc(C(=O)C2=C(O)C(=O)N(c3nnc(C)s3)C2c2ccc(O)cc2)cc1` (centres unmarked), 251 °C.
`COc1ccc(C(=O)C2=C(O)C(=O)N(c3nnc(C)s3)C2c2ccc(C(=O)O)cc2)cc1` (centres unmarked) yielded a melting point of 281 °C.
On the same count and under the same terms, for `Cc1ccc(C(=O)C2=C(O)C(=O)N(c3ncc(S(=O)(=O)c4ccc([N+](=O)[O-])cc4)s3)C2c2ccc(C(=O)O)cc2)cc1` (centres unmarked) the value was 308 to 309 °C; for `COC(=O)c1ccc(C2C(C(=O)c3ccc(OC)cc3)=C(O)C(=O)N2c2nnc(C)s2)cc1` (centres unmarked), 255 to 257 °C; for `Cc1ccc(C(=O)C2=C(O)C(=O)N(c3ncc(S(C)(=O)=O)s3)C2c2ccc(C(C)C)cc2)cc1` (centres unmarked), 269 to 271 °C.
In turn, `CNC(=O)c1ccc(C2C(C(=O)c3ccc(C)cc3)=C(O)C(=O)N2c2ncc(S(=O)(=O)c3ccc([N+](=O)[O-])cc3)s2)cc1` (centres unmarked) (as salt: hydrochloride) returned a melting point of 195 to 197 °C.
`COC1=C(C(=O)c2ccc(OC)cc2)C(c2ccc(C(C)(C)C)cc2)N(c2nnc(C)s2)C1=O` (centres unmarked) registered a melting point of 235 to 237 °C.
On the same count and under the same terms, for `COc1ccc(C(=O)C2=C(O)C(=O)N(c3nnc(C)s3)C2c2ccc(C#N)cc2)cc1` (centres unmarked) the value was 185 °C; for `CC(C)(C)c1ccc(C2C(C(=O)CCc3ccccc3)=C(O)C(=O)N2c2ncc(S(=O)(=O)c3ccc([N+](=O)[O-])cc3)s2)cc1` (centres unmarked), 172 °C.
`Cc1ccc(C(=O)C2=C(O)C(=O)N(c3ncc(S(=O)(=O)c4ccc([N+](=O)[O-])cc4)s3)C2c2cccnc2)cc1` (centres unmarked): the melting point was determined as 211 °C.
Molecule `COC1=C(C(=O)c2ccc(C)cc2)C(c2ccc(C(C)C)cc2)N(c2ncc(S(=O)(=O)c3ccc([N+](=O)[O-])cc3)s2)C1=O` (centres unmarked) registered a melting point of 237 °C.

In the next data set the target is T1, HCV NS5BΔ21/Gal4-DBD fusion protein (Hepatitis C virus genotype 1b, UniProt Q9WMX2).
T1 construct: The protein was expressed with a 21 amino acid C-terminal deletion to remove transmembrane domain; expressed in transfected cells; host or cells: Huh-7 (transient transfection)
Description: 3D-SCREEN assay (NS5B reporter gene assay in Huh-7 cells). The data set is classed as cell-based, HCV genotype 1b. How it is done:
Human Hepatoma Huh-7 cell line was maintained in DMEM/HAMF-12 supplemented with 10% SVF, 4 mM glutamine, […] Na pyruvate, 1% penistreptomycine. HCV replicon containing Huh-7 cell lines Huh-9.13 and Luc Neo ET (Reblikon) were maintained in DMEM supplemented with 10% SVF, 2 mM glutamine, and 1×NEAA, 100 U/ml penicillin, and 100 μg/ml streptomycine. Replicon cells were maintained in medium supplemented with 1 mg/ml G418 for replicon Huh-9.13 and 0.5 mg/ml for Luc Neo et replicon unless indicated otherwise. Huh-7 and HCV replicon cell lines were maintained at 37° C. and 5% CO2 in a humidified atmosphere. Cells were dissociated at sub confluence with trypsin EDTA 1×.
cDNA encoding HCV NS5B genotype 1b, was cloned in frame with Gal4-DNA Binding Domain. The protein was expressed with a 21 amino acid C-terminal deletion to remove transmembrane domain. Expression of NS5BΔ21/Gal4 DBD fusion protein was under control of SV40 early promoter. 3D-Sensor peptide was cloned in frame with VP16 activation domain. Expression of 3D-Sensor/VP16 AD fusion protein was under control of CMV promoter. Expression of the firefly luciferase reporter gene was inducible by the [Target protein/conformation sensitive peptide/VP16AD] complex.
It is a single-target, cell based assay. Briefly, expression of a reporter gene depends on the interaction of a short peptide, thereafter named 3D-Sensor, and native conformation of the target protein. Whenever the conformation of the target protein is modified, interaction between 3D-sensor and target protein is disrupted and reporter gene is not expressed anymore. Conformation modifiers are identified by loss of expression of reporter gene. NS5B 3D-Screen platform was generated in Huh-7 cell lines by transient transfection of three expression vectors encoding respectively • (i) HCV NS5BΔ21/Gal4-DBD fusion protein • (ii) the 3D-sensor peptide 14/VP16 fusion protein • (iii) the firefly luciferase reporter gene
Huh-7 cells were dissociated the day before transfection and seeded in T175 flasks at a density of 10^7 cells in 30 ml culture medium. Equimolar ratios of vectors were transfected in cell according to optimized jetPEI transfection protocol (PolyPlus Transfection, Illkirch, France) and 10 μg total DNA/10^6 cells. Transfection was performed for 2 hours at 37° C. and 5% CO2 in a humidified atmosphere. After two hours cells were dissociated and seeded in 96 wells plates at a density of 25,000 cells per well and 90 μl culture medium. 10 μl of compounds to be tested were added 2 hours after seeding. Final concentration of DMSO was 1%. Cells were incubated in the presence of compounds for 24 hours after which expression of firefly luciferase reporter gene was quantified. Briefly, culture medium was removed and cells were lysed by addition of 100 μl of lysis buffer containing 125 mM Tris Phosphate ph 7.8, 10 mM EDTA, 5 mM DTT, 50% glycerol and 5% Triton. Plates were vortexed 10 min at 1300 rpm. Cell lysat was transferred in OpaqueWhite Assay 96 well Flat Bottom plates. 100 μl of luciferin solution 1× were added to each well. Luciferin solution contained 40 mM Tris Phosphate ph 7.8, 0.2 mM EDTA, 67 mM DTT, 2.14 mM MgCl2, 5.4 mM MgSO4, 4.7×10^−4 M luciferin, 5.3×10^−4 M ATP and 2.7×10^−4 M Acetyl co enzyme A. Luminescence was immediately measured with Berthold Microlumat Plus LB 96V luminometer with an integration of 0.5 sec. Inhibition was calculated using the formula: % inhibition=(1−(read/average max))*100. Average max=signal in absence of compound
The molecule `CC(C)c1ccc(C(=O)C2=C(O)C(=O)N(c3ncc(Sc4ccc([N+](=O)[O-])cc4)s3)C2c2ccc(OC(F)(F)F)cc2)cc1` (centres unmarked) [Example 131, 3-hydroxy-4-(4-isopropyl-benzoyl)-1-[5-(4-nitro-phenylsulfanyl)-thiazol-2-yl]-5-(4-trifluoromethoxy-phenyl)-1,5-dihydro-pyrrol-2-one] gave a half-maximal effective concentration (EC50) of 13 µM.
Take `CON=C(C1=C(O)C(=O)N(c2ncc(S(=O)(=O)c3ccc([N+](=O)[O-])cc3)s2)C1c1ccc(C(C)C)cc1)c1ccc(C)cc1` (mixture of isomers) [Example 49, 3-hydroxy-5-(4-isopropyl-phenyl)-4-{[methoxyimino]-p-tolyl-methyl}-1-[5-(4-nitro-benzenesulfonyl)-thiazol-2-yl]-1,5-dihydro-pyrrol-2-one]: a half-maximal response (EC50) required 4 µM.
Molecule `Cc1ccc(C2C(C(=O)c3ccc(Cl)cc3)=C(O)C(=O)N2c2ncc(S(=O)(=O)c3ccc([N+](=O)[O-])cc3)s2)cc1` (centres unmarked) [Example 66] registered an EC50 of 14 µM.
With `COC(=O)c1sc(N2C(=O)C(O)=C(C(=O)c3ccc(Cl)cc3)C2c2ccc(C(C)(C)C)cc2)nc1C` (centres unmarked) [Example 62], the midpoint of the response, the EC50, lay at 20 µM.
Turning to `CC(C)c1ccc(C2C(C(=O)Cc3ccccc3)=C(O)C(=O)N2c2ncc(S(=O)(=O)c3ccc([N+](=O)[O-])cc3)s2)cc1` (centres unmarked) [Example 11, 3-hydroxy-5-(4-isopropyl-phenyl)-1-[5-(4-nitro-benzenesulfonyl)-thiazol-2-yl]-4-phenylacetyl-1,5-dihydro-pyrrol-2-one], the EC50 is 12 µM.
In the case of `COc1ccc(C(=O)C2=C(O)C(=O)N(c3nnc(-c4ccccc4)s3)C2c2ccc(C(C)(C)C)cc2)cc1` (centres unmarked) [Example 30, 5-(4-tert-butyl-phenyl)-3-hydroxy-4-(4-methoxy-benzoyl)-1-(5-phenyl-[1,3,4]thiadiazol-2-yl)-1,5-dihydro-pyrrol-2-one], the EC50 is 6 µM.
Consider `O=C(C1=C(O)C(=O)N(c2ncc(S(=O)(=O)c3ccc([N+](=O)[O-])cc3)s2)C1c1cccc(Cl)c1)c1ccc(Cl)cc1` (centres unmarked) [Example 59], for which the response was half-maximal at 14 µM (EC50).
In the case of `CC(C)c1ccc(C2C(C(=O)c3ccc(C(C)(C)C)cc3)=C(O)C(=O)N2c2ncc(S(=O)(=O)c3ccc([N+](=O)[O-])cc3)s2)cc1` (centres unmarked) [Example 9, 4-(4-tert-butyl-benzoyl)-3-hydroxy-5-(4-isopropyl-phenyl)-1-[5-(4-nitro-benzenesulfonyl)-thiazol-2-yl]-1,5-dihydro-pyrrol-2-one], a half-maximal effect (EC50) was put at 4 µM.
For `Cc1ccc(C(=O)C2=C(O)C(=O)N(c3ncc(S(=O)(=O)c4ccc([N+](=O)[O-])cc4)s3)C2c2ccc(C)cc2)cc1` (centres unmarked) [Example 124], the EC50 is 7 µM.
Consider `COc1ccc(C2C(C(=O)c3ccc(C)cc3)=C(O)C(=O)N2c2ncc(S(=O)(=O)c3ccc([N+](=O)[O-])cc3)s2)cc1` (centres unmarked) [Example 53], for which the EC50 is 6 µM.
Still for that read-out and setting: for `COc1ccc(C2C(C(=O)c3ccc(Cl)cc3)=C(O)C(=O)N2c2ncc(S(=O)(=O)c3ccc([N+](=O)[O-])cc3)s2)cc1` (centres unmarked) [Example 52] the value was 6 µM; for `CC(C)c1ccc(C2C(C(=O)c3ccc(Cl)cc3)=C(O)C(=O)N2c2ncc(S(=O)(=O)c3ccc([N+](=O)[O-])cc3)s2)cc1` (centres unmarked) [Example 32], 2 µM.
For the molecule `CC(C)(C)c1ccc(C2C(C(=O)c3nccs3)=C(O)C(=O)N2c2ncc(S(=O)(=O)c3ccc([N+](=O)[O-])cc3)s2)cc1` (centres unmarked) [Example 56, 5-(4-tert-butyl-phenyl)-3-hydroxy-1-[5-(4-nitro-benzenesulfonyl)-thiazol-2-yl]-4-(thiazol-2-carbonyl)-1,5-dihydro-pyrrol-2-one], the EC50 was < 10 µM.
The molecule `Cc1ccc(C(=O)C2=C(O)C(=O)N(c3ncc(S(=O)(=O)c4ccc([N+](=O)[O-])cc4)s3)C2c2ccc(Cl)cc2)cc1` (centres unmarked) [Example 60] registered an EC50 of 13 µM.
In the case of `CC(C)c1ccc(C2C(C(=O)c3ccc(OC(F)(F)F)cc3)=C(O)C(=O)N2c2ncc(S(=O)(=O)c3ccc([N+](=O)[O-])cc3)s2)cc1` (centres unmarked) [Example 13, 3-hydroxy-5-(4-isopropyl-phenyl)-1-[5-(4-nitro-benzenesulfonyl)-thiazol-2-yl]-4-(4-trifluoromethoxy-benzoyl)-1,5-dihydro-pyrrol-2-one], a half-maximal response (EC50) required 2 µM.
With `COc1ccc(C(=O)C2=C(O)C(=O)N(c3nnc(C4CCCCC4)s3)C2c2ccc(C(C)(C)C)cc2)cc1` (centres unmarked) [Example 27], a half-maximal effect (EC50) was put at 12 µM.
In the case of `O=C(C1=C(O)C(=O)N(c2ncc(S(=O)(=O)c3ccc([N+](=O)[O-])cc3)s2)C1c1cccc(Br)c1)c1ccc(Cl)cc1` (centres unmarked) [Example 57], the midpoint of the response, the EC50, lay at 4 µM.
On to `CC(C)c1ccc(C2C(Cc3ccccc3)=C(O)C(=O)N2c2ncc(S(=O)(=O)c3ccc([N+](=O)[O-])cc3)s2)cc1` (centres unmarked) [Example 36, 4-benzyl-3-hydroxy-5-(4-isopropyl-phenyl)-1-[5-(4-nitro-benzenesulfonyl)-thiazol-2-yl]-1,5-dihydro-pyrrol-2-one], for which the EC50 worked out at 5 µM.

The values are drawn from patent US20120189579A1 (priority 2009, published 2012).
